Consider two molecules from publication PMC4233664, “Synergistic Effects of Clopidogrel and Fufang Danshen Dripping Pills by Modulation of the Metabolism Target and Pharmacokinetics” (Evidence-based Complementary and Alternative Medicine : eCAM, 2014).

Data set [1] can be described thus: Pharmacokinetic study of CPGS in rat plasma after oral clopidogrel alone or with FDDP. The format is in vivo, SD rats. As for the experimental part:
Analyses were performed using the Agilent HPLC 1100 system (Agilent, USA) consisting of a quat pump (G1311A), an autosampler (G1313A), and an online degasser (G1322A). The chromatographic separation was performed on an Agilent Zorbax SB C18 column (4.6 mm × 250 mm, 5 μm). A simple gradient method was used, in which the percentage of acetonitrile-buffer (0.2% phosphoric acid in water) was varied as shown in Table 1 at a flow rate of 1.0 mL/min. The injection volume was 10 μL. The total LC run time was 12 min with the column temperature kept at 30°C and the detection at a wavelength of 220 nm.
An aliquot of 10 μL 1 M hydrochloric acid (HCL), 100 μL blood plasma, and 10 μL of IS (160 μg/mL) was added into a 1.5 mL centrifuge tube. After vortex-mixing for 1 min, 1 mL of extraction solvent (ethyl acetate-dichloromethane; 4 : 1, V/V) was added and vortexed vigorously for 4 min, followed by centrifugation for 12 min at 12000 rpm. Next, 950 μL of supernatant was transferred into another tube and evaporated to dryness at 40°C for 90 min under a gentle stream of nitrogen. The residue was reconstituted with 100 μL of the mobile phase and vortexed for 1 min and then centrifuged for 5 min at 12000 rpm. For analysis, 10 μL of the supernatant was injected onto the HPLC system. The plasma concentrations of the analytes exceeded the upper limit of quantification, and therefore the sample was diluted with blank plasma and vortexed for 1 min. A 100 μL aliquot of diluted sample was processed under the same sample pretreatment procedure as mentioned above.
The preclinical pharmacokinetic study was based on 16 SD rats. The investigation was approved by the Animal Ethics Committee of the Nanjing University of Traditional Chinese Medicine. Two groups of 8 rats each were used according to a parallel study. The clopidogrel-only group received 30 mg/kg oral administration of clopidogrel. The combination group (clopidogrel 30 mg/kg + FDDP 324 mg/kg) received their dose administered as a combination. The rats fasted for 12 h prior to the experiment, while free access to water remained. Plasma samples were collected at 0, 0.25, 0.5, 1, 1.5, 2.3, 4, 6, 8, 10, 12, and 24 h after dosing. Blood samples of 400 μL were obtained via an in-dwelling catheter in the caudal vein and collected into heparinized tubes. Then, the plasma was centrifuged for 10 min at 4000 rpm and the supernatant was transferred to labelled plastic vials at −80°C until the completion of the analysis.
Pharmacokinetic parameters were calculated using Drug and Statistic (DAS) 3.0 pharmacokinetic software (Chinese Pharmacological Association, Anhui, China). The pharmacokinetic parameters included the compartment parameters and statistical parameters (Table 6).
The area under the plasma concentration-time curve (AUC) was calculated using the linear trapezoidal rule. The elimination rate constant (kel) was calculated by linear regression of the terminal points of the semilog plot of the plasma concentration against time. The half-life of drug elimination during the terminal phase (t 1/2) was calculated from the formula t 1/2 = 0.693/kel. Mean residence time (MRT) was calculated as AUMC/AUC, where AUMC is the area under the first moment of the plasma concentration-time curve. The volume of distribution (Vd) of the central compartment was calculated as dose/C 0, where C 0 is the concentration measured just after the administration. Plasma clearance (CL) was calculated as dose/AUC.

Data set [2] can be described thus: Stability of CPGS in plasma samples (HPLC method validation). The format is physicochemical, rat. As for the experimental part:
Stability experiments were performed to evaluate the analyte stability in stock solutions and in plasma samples under different conditions. Room temperature stability, refrigerated stability of extracted sample, freeze-thaw stability, and long-term stability were performed using three replicates at each QC level.

Data set [3] concerns carboxyl esterase 1 (CES1). The note with it: in the liver; cited from earlier work.
A further data set concerns cytochrome P450 (CYP). The settings on record: cited from earlier work.
In another data set the test system is antiplatelet responses. The settings on record: conventional doses of clopidogrel; cited from earlier work.
Setting [4] is: CPGS in rat plasma, clopidogrel 30 mg/kg intragastric, administered alone, 21 days.
Where [5] appears, read: CPGS in rat plasma, coadministration clopidogrel 30 mg/kg + FDDP 324 mg/kg intragastric, 21 days.
Setting [6] is: CPGS in rat plasma, coadministration clopidogrel 30 mg/kg + FDDP 324 mg/kg intragastric, 21 days, P < 0.05 vs clopidogrel-only.
The mark [7] stands for this setting: combination vs clopidogrel alone, rats.
Setting [8] is: combination vs clopidogrel-only group, rats.
The mark [9] stands for this setting: combination vs clopidogrel-only group, rats, not statistically significant.

Regarding `O=C(O)[C@H](c1ccccc1Cl)N1CCc2sccc2C1` [CPGS], in data set [1] (setting [4]), the “AUC (0–tn)” value turned out to be 90.529 ± 18.557 mg/L∗h; the “AUC (0–∞)” value is given as 104.965 ± 24.367 mg/L∗h; the CL/F – broadly, the apparent clearance, not corrected for the fraction that reaches the circulation – came out at 5.15 ± 2.08 mL/min/kg; the Ka was found to be 6.807 ± 6.698. Further, in data set [1] (setting [4]), the MAT is on record as 13.336 ± 2.566 h, the “MRT (0–tn)” value is 7.453 ± 0.747 h, the “MRT (0–∞)” value is reported as 11.359 ± 2.022 h and the T1/2β is 14.788 ± 14.311 h. In addition, in data set [1] (setting [4]), the T max came to 1.208 ± 0.332 h and the V/F is reported as 5.079 ± 2.153 L/kg. Also, in data set [1] (setting [5]), the “AUC (0–tn)” value is listed as 70.314 ± 35.213 mg/L∗h, the “AUC (0–∞)” value was found to be 76.324 ± 39.971 mg/L∗h, the C max turned out to be 10146 ± 4848 ng/mL and the CL/F is 7.58 ± 3.07 mL/min/kg. Besides, in data set [1] (setting [5]), the Ka amounted to 2.519 ± 3.073, the “MRT (0–tn)” value turned out to be 6.871 ± 0.741 h, the T1/2β is given as 19.495 ± 18.931 h and the T max was found to be 1.583 ± 0.376 h. The V/F in data set [1] (setting [5]) was determined as 9.987 ± 9.820 L/kg. For the same molecule, in data set [1] (setting [6]), the MAT was determined as 8.198 ± 3.556 h and the “MRT (0–∞)” value stood at 8.854 ± 1.873 h. In data set [1] (setting [7]), the “Change of area under the curve of CPGS by FDDP” value was “decreased” and the “Change of peak plasma concentration of CPGS by FDDP” value was “decreased”. In data set [1] (setting [8]), the “Change of MAT of CPGS in the combination group” value is on record as “greater degrees of decline” and the “Change of MRT (0-∞) of CPGS in the combination group” value was “greater degrees of decline”. In data set [1] (setting [9]), the “Change of CL/F of CPGS in the combination group” value was “slightly higher” and the “Change of T max of CPGS in the combination group” value is “slightly higher”. The “Pharmacokinetic model describing CPGS” value in data set [1] (rat plasma after clopidogrel alone or with FDDP) was “two-compartment open model”. Also, the “Stability in extracted plasma samples” value in data set [2] (24 h at room temperature) is given as “stable”. Further, the “Long-term stability of spiked plasma samples” value in data set [2] (stored at −20°C, 20 days) is on record as “stable”.

For `COC(=O)[C@H](c1ccccc1Cl)N1CCc2sccc2C1` [clopidogrel], in data set [3], the “Share of absorbed parent drug transformed by CES1 into inactive carboxylic acid derivative (CPGS)” value is on record as 85%. Moreover, the “Share of absorbed clopidogrel dose transformed by CYP into thiol metabolite” value in the data set with cytochrome P450 (CYP) was 15%. Moreover, in the data set on antiplatelet responses, the “Patients displaying inadequate antiplatelet responses” value is listed as 5–40%.
